From PubChem BioAssay (NCI)
Several values for one entry are separate records, joined by “and”; a condition that tells them apart may be missing. Equal entries are not always repeated.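 Tested at 5 concentrations; 48 h exposure; 96-well plates; endpoints linearly interpolated, else capped at highest concentration. At the GI50, growth is halved. TGI is the concentration that stops growth completely.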

Columns and labels:
Test in all cases: NCI-60 cell line screen, 48 h
SF-268 CNS = tested on: SF-268 CNS
HOP-62 NSCLC = tested on: HOP-62 NSCLC
SK-OV-3 ovarian = tested on: SK-OV-3 ovarian
OVCAR-5 ovarian = tested on: OVCAR-5 ovarian
MALME-3M melanoma = tested on: MALME-3M melanoma
SR leukemia = tested on: SR leukemia
SK-MEL-2 melanoma = tested on: SK-MEL-2 melanoma
NCI/ADR-RES ovarian = tested on: NCI/ADR-RES ovarian
MDA-MB-231 breast = tested on: MDA-MB-231 breast
BT-549 breast = tested on: BT-549 breast

Row | Structure (SMILES) | TGI (SF-268 CNS) | TGI (HOP-62 NSCLC) | TGI (SK-OV-3 ovarian) | TGI (OVCAR-5 ovarian) | TGI (MALME-3M melanoma) | TGI (SR leukemia) [µM] | TGI (SK-MEL-2 melanoma) | GI50 (SF-268 CNS) | GI50 (NCI/ADR-RES ovarian) | TGI (NCI/ADR-RES ovarian) | GI50 (HOP-62 NSCLC) | GI50 (SK-OV-3 ovarian) | GI50 (MDA-MB-231 breast) | TGI (MDA-MB-231 breast) | GI50 (SK-MEL-2 melanoma) | GI50 (OVCAR-5 ovarian) | GI50 (BT-549 breast) | TGI (BT-549 breast) | GI50 (SR leukemia) [µM] | GI50 (MALME-3M melanoma)
1 | CCC(/C(=N/NC(=O)C[N+](C)(C)C)c1ccccc1)C1OC(=O)c2ccccc21 (stereo not drawn) | > 100 µM | > 100 µM | > 100 µM | > 100 µM | > 100 µM | > 100 | – | – | – | – | – | – | – | – | – | – | – | – | – | –
2 | O=S1(=O)CC#CC[C@@H](CO)[C@@H](CO)CC#CC1 | – | > 100 µM | > 100 µM | > 100 µM | 68.2 µM | > 100 | > 100 µM | – | – | – | – | – | – | – | – | – | – | – | – | –
3 | Cc1cc(NCCCCCCCCNc2cc(C)nc3cc(N(C)C)ccc23)c2ccc(N(C)C)cc2n1 | 26.9 µM | 29 µM | – | – | – | 43.9 | – | – | – | – | – | – | – | – | – | – | – | – | – | –
4 | Cc1cc(S(=O)(=O)Nc2nc3ccccc3s2)c(SCc2ccccc2)cc1Cl | 73.9 µM | > 100 µM | 98.4 µM | 36.7 µM | – | 58 | > 100 µM | 27.1 µM | 15.8 µM | 35.9 µM | 31.6 µM | 32.4 µM | 16.9 µM | 37.7 µM | 37.2 µM | 18.8 µM | 20.9 µM | 60.5 µM | 18.3 | –
5 | CNC(=O)c1cc(Oc2ccc(NC(=O)Nc3ccc(Cl)c(C(F)(F)F)c3)cc2)ccn1 | > 10 µM and 10.8 µM and 7.88 µM | > 10 µM and 7.97 µM and 4.81 µM | 9.87 µM and 12.5 µM and 7.31 µM | > 10 µM and 19.9 µM and 15.7 µM | > 10 µM and 6.71 µM and 11 µM | – | 3.57 µM and 2.93 µM and 6.22 µM | 4.15 µM and 2.73 µM and 2.63 µM | 3.06 µM and 2.63 µM and 2.65 µM | > 10 µM and 7.89 µM and 15.7 µM | 2.78 µM and 2.59 µM and 2.01 µM | 3.14 µM and 3.28 µM and 2.5 µM | 1.74 µM and 1.62 µM and 1.33 µM | 4.4 µM and 4.42 µM and 4.14 µM | 1.16 µM and 1.31 µM and 1.77 µM | 3.54 µM and 4.39 µM and 3.11 µM | 3.01 µM and 2.29 µM and 3.16 µM | > 10 µM and 5.23 µM and 8.69 µM | – | 2.9 µM and 2.08 µM and 2.15 µM
6 | COC1C[C@H](O[C@@H]2C[C@H](O[C@@H]3C[C@H](O[C@@H]4C(=O)c5c(cc6cc(O[C@H]7C[C@@H](O[C@H]8C[C@@H](O)[C@H](O)C(C)O8)[C@H](O)C(C)O7)c(C)c(O)c6c5O)C[C@H]4C(OC)C(=O)[C@@H](O)[C@@H](C)O)OC(C)[C@H]3O)OC(C)[C@@H]2O)OC(C)[C@@H]1O (stereo partly drawn) | > 32.5 µM | > 32.5 µM | > 32.5 µM | > 32.5 µM | 0.437 µM | > 32.5 | 0.165 µM | 0.0864 µM | > 32.5 µM | > 32.5 µM | 0.0752 µM | 0.105 µM | – | – | 0.068 µM | 0.106 µM | 0.0785 µM | 0.565 µM | 0.0406 | 0.0861 µM
7 | C#CCN(Cc1ccc2nc(-c3ccccc3)c(Cl)nc2c1)c1ccc(Cl)c(Cl)c1 | > 100 µM | > 100 µM | > 100 µM | > 100 µM | > 100 µM | > 100 | > 100 µM | – | – | – | – | – | – | – | – | – | – | – | – | –
8 | COc1ccc(NC(=O)CC2SC(=Nc3ccc(Cl)cc3C)NC2=O)c([N+](=O)[O-])c1 (stereo not drawn) | > 100 µM | – | – | > 100 µM | > 100 µM | > 100 | > 100 µM | – | – | – | – | – | – | – | – | – | – | – | – | –
9 | COc1ccc(C2[C@@H](Cl)C(=O)N2c2ccc(OC)cc2)cc1 (stereo partly drawn) | > 100 µM | – | 53 µM | > 100 µM | > 100 µM | > 100 | > 100 µM | – | – | – | – | – | – | – | – | – | – | – | – | –
10 | COc1cc(OC)c(OC)cc1/C=C/c1ccc2ccccc2n1 | > 10 µM | > 10 µM | > 10 µM | > 10 µM | > 10 µM | > 10 | – | – | – | > 10 µM | – | – | – | > 10 µM | – | – | – | > 10 µM | – | –
11 | Cc1ccc(C2=C(c3ccccc3)C(O)(c3ccccc3)C(c3ccccc3)=C2c2ccc(C)cc2)cc1 | > 100 µM | > 100 µM | > 100 µM | > 100 µM | > 100 µM | > 100 | > 100 µM | – | – | – | – | – | – | – | – | – | – | – | – | –
12 | O=C(C#Cc1ccccc1)N1CCCCC1 | > 100 µM | > 100 µM | > 100 µM | > 100 µM | > 100 µM | > 100 | > 100 µM | – | – | – | – | – | – | > 100 µM | – | – | – | > 100 µM | – | –
13 | Nc1nc2c(nnn2C2C=C(CO)C(O)C2O)c(=O)[nH]1 (stereo not drawn) | > 100 µM | > 100 µM | > 100 µM | > 100 µM | > 100 µM | > 100 | > 100 µM | – | – | – | – | – | – | – | – | – | – | – | – | –
14 | CN(N=O)N1C(=O)SCC(c2ccccc2)(c2ccccc2)C1=O | > 100 µM | > 100 µM | 64.6 µM | > 100 µM | > 100 µM | > 100 | 54.5 µM | – | – | > 100 µM | – | – | – | > 100 µM | – | – | – | – | – | –
15 | c1ccc(C2SCc3nc4ccccc4n32)cc1 (stereo not drawn) | > 100 µM | > 100 µM | > 100 µM | > 100 µM | > 100 µM | > 100 | > 100 µM | – | – | – | – | – | – | – | – | – | – | – | – | –
16 | CCN(CC(O)COc1ccc2c(c1)[n+]([O-])nc(N)[n+]2[O-])C(C)=O (stereo not drawn) | > 100 µM | > 100 µM | > 100 µM | > 100 µM | – | > 100 | > 100 µM | – | – | > 100 µM | – | – | – | > 100 µM | – | – | – | > 100 µM | – | –
17 | O=C1C2Cc3ccccc3CN2C(=O)N1CN1CCCCC1 (stereo not drawn) | > 100 µM | > 100 µM | – | > 100 µM | > 100 µM | > 100 | > 100 µM | – | – | – | – | – | – | – | – | – | – | – | – | –
18 | OCC1OC(NO)C(O)C(O)C1O (stereo not drawn) | > 100 µM | > 100 µM | – | > 100 µM | > 100 µM | > 100 | – | – | – | – | – | – | – | – | – | – | – | – | – | –
19 | O=C(O)[C@@H](Cc1ccccc1)NS(=O)(=O)c1ccc(-c2ccccc2)cc1 | > 100 µM | > 100 µM | > 100 µM | > 100 µM | > 100 µM | – | > 100 µM | > 100 µM | > 100 µM | > 100 µM | > 100 µM | > 100 µM | > 100 µM | > 100 µM | > 100 µM | > 100 µM | > 100 µM | > 100 µM | – | > 100 µM
20 | Cc1nc2cc3[nH]c4ccccc4c(=O)c3cc2s1 | > 100 µM | > 100 µM | > 100 µM | > 100 µM | > 100 µM | > 100 | > 100 µM | – | – | – | – | – | – | – | – | – | – | – | – | –
21 | O=S(=O)(O)c1ccc([Se][Se]c2ccc(S(=O)(=O)O)cc2)cc1 | > 100 µM | > 100 µM | > 100 µM | > 100 µM | > 100 µM | 96.6 | > 100 µM | – | – | – | – | – | – | – | – | – | – | – | – | –
22 | CC1=NN(c2ccccc2)C(=O)C1N=Nc1ccc(Br)cc1C (stereo not drawn) | > 100 µM | > 100 µM | > 100 µM | > 100 µM | > 100 µM | – | > 100 µM | – | – | – | – | – | – | – | – | – | – | – | – | –
